These results are taken from paper PMC9981504 (Journal of Biological Inorganic Chemistry, 2023).

This experiment addresses T1, soybean lipoxygenase (Glycine max, UniProt P08170).
T1 construct: gene LOX1.1
The experiment is described as follows: UV enzyme assay at […] nm, % inhibition at […]. The experiment is classed as biochemical. Conditions: read-out: LOX % 100 μM or IC50.

T1 sequence (P08170 whole entry): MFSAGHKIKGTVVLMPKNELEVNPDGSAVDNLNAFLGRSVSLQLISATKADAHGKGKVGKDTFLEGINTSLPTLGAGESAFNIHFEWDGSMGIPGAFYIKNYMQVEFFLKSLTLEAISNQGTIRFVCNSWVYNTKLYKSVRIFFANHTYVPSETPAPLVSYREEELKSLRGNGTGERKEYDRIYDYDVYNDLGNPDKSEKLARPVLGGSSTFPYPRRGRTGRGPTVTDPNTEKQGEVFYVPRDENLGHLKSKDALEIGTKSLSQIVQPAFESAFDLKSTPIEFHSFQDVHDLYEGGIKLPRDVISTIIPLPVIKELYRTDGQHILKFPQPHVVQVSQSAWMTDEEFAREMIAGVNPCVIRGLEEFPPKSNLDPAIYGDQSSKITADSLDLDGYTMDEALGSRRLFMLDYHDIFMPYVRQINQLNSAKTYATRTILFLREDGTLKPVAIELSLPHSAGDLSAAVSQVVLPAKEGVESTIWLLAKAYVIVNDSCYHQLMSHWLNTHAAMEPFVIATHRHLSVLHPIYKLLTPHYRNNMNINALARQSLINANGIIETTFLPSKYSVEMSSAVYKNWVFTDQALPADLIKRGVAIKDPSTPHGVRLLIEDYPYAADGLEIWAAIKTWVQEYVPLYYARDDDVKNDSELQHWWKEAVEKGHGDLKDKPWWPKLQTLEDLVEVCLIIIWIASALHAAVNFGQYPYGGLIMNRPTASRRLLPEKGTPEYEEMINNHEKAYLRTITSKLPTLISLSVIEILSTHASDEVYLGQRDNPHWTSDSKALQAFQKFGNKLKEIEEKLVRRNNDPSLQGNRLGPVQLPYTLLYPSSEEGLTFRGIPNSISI

In the case of `O=c1c(O)c(-c2ccc(O)cc2)oc2cc(O)ccc12` [resokaempferol, 3,7,4΄-trihydroxyflavone], the inhibition at 100 µM came to 90%.
